# Experimental data as given in patent publication US20060128645A1, “Inhibition of proliferation and infiltration of brain tumor cells caused by expression of ampa-type glutamate receptor subunit” (priority 2002, published 2006).
# Columns and labels:
# CGNH-89 cells [1] = test: TUNEL apoptotic index in CGNH-89 cells; format: cell-based, human; settings: 10 μM YM872, 2 days, n=4
# Text: The present inventors next estimated the apoptotic index in CGNH-89 cells expressing GluR2 (R) using the terminal deoxynucleotide transferase (TdT)-mediated dUTP nick end labeling (TUNEL) method (Science, 267, 1445-1449, 1995), and compared this value with that in cells infected with only AxCALNLGluR2 (control). The apoptotic index was defined as the number of TUNEL-positive cells divided by the total number of propidium iodine (PI)-positive nuclei per microscopic field. To obtain the mean value in each culture dish, 10 to 15 randomly chosen fields were sampled.
# For TUNEL and cell proliferation assays, cells were plated at a density of 2×10^4/well in Lab-Tek 4-well glass slides filled with the standard culture medium. At 6 hr. after plating, the medium was replaced with glutamate-free medium and cells were infected with the adenoviruses. At 48 hr. after plating, glutamate (100 μM) was added to the medium and cells were fixed at 5 days postinfection. TUNEL assay was performed with an In Situ Cell Death Detection kit (MBL). Cell proliferation assay was performed with anti-Ki-67 monoclonal antibody (Dako) staining indices. Migration assay was performed in a transwell chamber (8 μm pore size) (Corning Corstar Corp.).
# CGNH-89 cells [2] = test: Ki-67 staining index (proliferation activity) in CGNH-89 cells; format: cell-based, human; settings: 10 μM YM872, 2 days, n=4
# Procedure: There were no significant changes in these 2 indices between cells expressing GluR2 (Q) and overexpressing GluR1.
# For TUNEL and cell proliferation assays, cells were plated at a density of 2×10^4/well in Lab-Tek 4-well glass slides filled with the standard culture medium. At 6 hr. after plating, the medium was replaced with glutamate-free medium and cells were infected with the adenoviruses. […] TUNEL assay was performed with an In Situ Cell Death Detection kit (MBL). Cell proliferation assay was performed with anti-Ki-67 monoclonal antibody (Dako) staining indices. Migration assay was performed in a transwell chamber (8 μm pore size) (Corning Corstar Corp.).
# CGNH-89 cells [3] = test: Cell morphology of CGNH-89 glioblastoma cells; format: cell-based, human
# [4] = tested on: CGNH-NM, MRCH-92 and U87 MG; test: Other 3 cell lines expressing Ca2+-permeable AMPARs: morphology, apoptotic index, Ki-67 index, migration; format: cell-based, human
# [5] = target: T1, Ca^2+-permeable AMPARs in glioblastoma cells in primary culture (Homo sapiens, UniProt P42261); test: AMPA-induced [Ca2+]i changes (fura-2 AM) in primary cultured glioblastoma cells; format: cell-based
# T1 construct: To examine functional expression of Ca^2+-permeable AMPARs in glioblastoma cells in primary culture; endogenous in cells; host or cells: primary (explant) cultures of glioblastoma multiforme surgical samples
# Procedure: (§1) Cells were loaded with fura 2-AM (Dojin) at room temperature for 40 min. Fluorescence images were obtained at an excitation wavelength of 340 and 380 nm using the Argus/HiSCA system (Hamamatsu Photonics). The 340/380 nm fluorescence ratio was converted to [Ca^2+]i as described previously (Cell, 88, 49-55, 1997).
# [6] = tested on: tumor produced by grafting CGNH-89 cells into the subcutaneous tissue; test: Subcutaneous CGNH-89 tumor growth in nude mice; format: in vivo
# Text: To further estimate quantitatively whether manipulation of Ca^2+-permeable AMPARs alters tumor growth in vivo, the present inventors examined effects of GluR2 and GluR2 (Q) expression and/or application of the AMPAR antagonist YM872 on the growth of tumor produced by grafting CGNH-89 cells into the subcutaneous tissue of nude mice (FIG. 6)-(FIGS. 6a and b).
# Proliferation of tumor cells expressing GluR2 (Q) was inhibited by application of YM872 (FIGS. 6g, h and i).
# In addition, the effect of adenoviral-mediated expression of GluR2 (R) and GluR2 (Q) on tumor growth was evaluated quantitatively in subcutaneous tumors with or without application of YM872, an antagonist for AMPA-type glutamate receptors. Cell suspensions (1×10^7/100 μl) were injected subcutaneously in the flank of nude mice 5˜6 weeks old (body weight, 18˜20 g). Adenoviruses ([…], diluted in a total of 100 μl of PBS) were administered intratumorally once 5 days after tumor inoculation with a 27-gauge needle. AxCALNLGluR2 without AxCANCre was administered for control.
# YM872, a kind gift from Yamanouchi Pharmaceutical Company, was dissolved in PBS. […] In this series of experiments, 100 mg/kg YM872 was used. PBS (100 μl) was administered intraperitoneally for control. Tumor volume was calculated according to the formula (length×width^2 )/2. At the end of each experiment, tumor tissues were subjected to histological analysis.
# CGNH-89 cells [7] = test: ATP-induced [Ca2+]i increase in CGNH-89 cells; format: cell-based, human; settings: 25 μM ATP; control cells, n=50
# Procedure: The present inventors examined whether CGNH-89 cells expressing GluR2 (R) could increase [Ca^2+]i to a similar extent as control cells in response to ATP, which is known to mediate Ca^2+ signaling in glial cells (J. Neurosci., 18, 8794-8804, 1998).
# as §1
# tumor cells = test: Tumor cells cultured in glutamate-free medium, glutamate add-back; format: cell-based, human; settings: addition of 100 ˜M glutamate after 4˜5 days in glutamate-free medium with 10% dialyzed FCS
# Procedure: The endogenous agonist for AMPARs is glutamate. The culture medium in this experiment was supplemented with fetal calf serum (FCS) and contained up to 100 μM glutamate. The presence of glutamate was essential for maintenance of fusiform morphology as well as proliferation of the tumor cells. When the cells were cultured in glutamate-free medium supplemented with 10% dialyzed FCS for 4˜5 days, they became polygonal in shape and the number of apoptotic cells increased. These changes were restored by addition of 100 ˜M glutamate. An obvious question is whether a sufficient concentration of glutamate to activate Ca^2+-permeable AMPARs is actually supplied to proliferating and migrating tumor cells in the brain. It has been shown that implanted glioma cells continue to secrete glutamate, resulting in a detectable elevation of extracellular glutamate, and that gliomas with high glutamate release have a distinct growth advantage (Nature Med., 7, 1010-1015, 2001).
# [8] = tested on: Ca^2+-permeable AMPARs in CGNH-89 cells; test: AMPA-induced [Ca2+]i changes (fura-2 AM) in CGNH-89 cells after adenoviral gene transfer; format: cell-based, human; settings: 200 μM AMPA + 100 μM CTZ
# Procedure: In FIGS. 3p˜x, the present inventors confirmed changes in Ca^2+ permeability induced by adenoviral-mediated introduction of GluR2 (R) or GluR2 (Q) in CGNH-89 cells. […] The same treatment had no effect on [Ca^2+]i in cells expressing GluR2 (FIGS. 3s, t and u) in 4 culture dishes, whereas it caused a marked increase in [Ca^2+]i from 77±21 to 1185±240 nM (n=40) in cells expressing GluR2 (Q) in 2 culture dishes (FIGS. 3v, w and x).
# (2) AxCANCre and AxCAGFP: recombinant adenoviruses for expression of Cre recombinase and EGFP (Clontech), respectively. Cells were infected at a multiplicity of infection (MOI) of 5 with each of the recombinant adenoviruses 2˜5 days before experiments.
# as §1
# [9] = other 3 cell lines (CGNH-NM, MRCH-92, U87 MG)
# [10] = 22 days after tumor inoculation
# T1 sequence (P42261 19-906): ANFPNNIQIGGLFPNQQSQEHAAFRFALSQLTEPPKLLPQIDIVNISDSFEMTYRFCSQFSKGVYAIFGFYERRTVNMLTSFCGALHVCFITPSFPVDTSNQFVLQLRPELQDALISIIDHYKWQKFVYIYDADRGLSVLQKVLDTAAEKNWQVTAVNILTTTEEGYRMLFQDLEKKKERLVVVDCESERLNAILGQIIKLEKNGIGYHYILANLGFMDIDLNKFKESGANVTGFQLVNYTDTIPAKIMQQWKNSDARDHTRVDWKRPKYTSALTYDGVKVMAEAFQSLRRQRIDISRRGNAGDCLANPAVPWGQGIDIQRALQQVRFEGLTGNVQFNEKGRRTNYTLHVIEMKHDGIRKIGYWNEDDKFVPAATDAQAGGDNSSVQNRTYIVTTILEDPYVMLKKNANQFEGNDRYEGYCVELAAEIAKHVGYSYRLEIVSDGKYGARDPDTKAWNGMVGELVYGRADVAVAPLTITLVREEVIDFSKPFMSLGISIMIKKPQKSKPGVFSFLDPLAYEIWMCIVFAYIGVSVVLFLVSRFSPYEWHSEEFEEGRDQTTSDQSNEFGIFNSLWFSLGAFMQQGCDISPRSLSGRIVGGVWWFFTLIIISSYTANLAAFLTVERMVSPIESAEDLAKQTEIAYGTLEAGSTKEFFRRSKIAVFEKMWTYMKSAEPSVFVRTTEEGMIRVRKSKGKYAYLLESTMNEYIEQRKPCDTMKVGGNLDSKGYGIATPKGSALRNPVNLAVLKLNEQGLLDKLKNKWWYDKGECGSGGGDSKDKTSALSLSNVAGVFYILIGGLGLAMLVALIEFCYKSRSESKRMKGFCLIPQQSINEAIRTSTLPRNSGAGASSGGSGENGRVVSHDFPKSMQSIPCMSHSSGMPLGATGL
compound,measurement,setting,value
"O.O=C(O)Cn1c(=O)c(=O)[nH]c2cc([N+](=O)[O-])c(-n3ccnc3)cc21 [YM872, [2,3-dioxo-7-(1H-imidazol-1-yl)-6-nitro-1,2,3,4-tetrahydroquinoxalin-1-yl]acetic acid monohydrate]",apoptotic index,CGNH-89 cells [1],18.0±2.5%
same,Ki-67 staining index,CGNH-89 cells [2],< 0.1%
same,change in cell morphology,CGNH-89 cells [3]; 10 μM YM872 for 2 days,"retraction of cytoplasmic processes, enlarged and flattened somata"
same,Ki-67 staining index,[4]; [9],decreased
same,apoptotic index,[4]; [9],increased
same,cell migration,[4]; other 3 cell lines expressing Ca^2+-permeable AMPARs,inhibited the cell migration
same,effect on AMPA-induced increase in [Ca^2+]i,[5]; 10 μM YM872,selectively abolished
same,apoptotic cells in tumor tissues (histology),[6]; [10],a large number of apoptotic cells
same,mitotic cells in tumor tissues (histology),[6]; [10],scarcely detected
same,further effect on tumor expressing GulR2,"[6]; YM872 intraperitoneal, 100 mg/kg",no further inhibitory effects
same,size of tumor,"[6]; YM872 intraperitoneal, 100 mg/kg daily, vs PBS, n=12",significantly reduced
same,growth of tumor expressing GluR2 (Q),"[6]; YM872 intraperitoneal, 100 mg/kg, n=12",inhibited
same,proliferation of tumor cells expressing GluR2 (Q) (histology),[6]; application of YM872,inhibited
same,"inhibition of tumor growth, dose dependence","[6]; daily intraperitoneal 10, 50 and 100 mg/kg for 2 weeks",Dose-dependent inhibition
same,tumor proliferation in cells expressing GluR2 (histology),[6]; treatment with YM872,no further inhibition
Nc1ncnc2c1ncn2[C@@H]1O[C@H](COP(=O)(O)OP(=O)(O)OP(=O)(O)O)[C@@H](O)[C@H]1O [ATP],[Ca^2+]i after application of ATP,CGNH-89 cells [7],1574 ± 161 nM
[K+] [K^+],effect on [Ca^2+]i,[5]; 100 mM K^+,did not increase
N[C@@H](CCC(=O)O)C(=O)O [glutamate],polygonal shape and increased apoptotic cells caused by glutamate-free medium,tumor cells,restored
"NS(=O)(=O)c1cccc2c1c([N+](=O)[O-])cc1nc(O)c(O)nc12 [NBQX, 2,3-dihydroxy-6-nitro-7-sulfamoyl-benzo(F)-quinoxaline]",change in cell morphology,CGNH-89 cells [3]; 20 μM NBQX for 2 days,"retraction of cytoplasmic processes, enlarged and flattened somata"
"Cc1onc(O)c1CC(N)C(=O)O (stereo not drawn) [AMPA, α-amino-3-hydroxy-5-methyl-4-isoxazole propionic acid]",control cells in which [Ca^2+]i increased,[8]; 10 culture dishes,52±14%
same,[Ca^2+]i during application of AMPA together with CTZ,"[8]; control CGNH-89 cells, n=350",275 ± 50 nM
